Reference: US6004960A, “Pyridazinones as inhibitors of cyclooxygenase-2” (Merck Frosst Canada, Inc., priority 1998, dated 1999)

Assays:
[1] = target: T1, COX-2 (Homo sapiens, UniProt P35354); assay: Human whole blood assay, COX-2 (LPS-induced PGE2 production); type: cell-based; set-up: incubation of human whole blood with LPS, which induces COX-2; from tissue; host or cells: fresh human whole blood (volunteers), incubated with LPS; settings: LPS-induced PGE2, 24 hours at 37° C, read-out: COX-2 (IC50 μM) HWB
T1 sequence (P35354 18-604): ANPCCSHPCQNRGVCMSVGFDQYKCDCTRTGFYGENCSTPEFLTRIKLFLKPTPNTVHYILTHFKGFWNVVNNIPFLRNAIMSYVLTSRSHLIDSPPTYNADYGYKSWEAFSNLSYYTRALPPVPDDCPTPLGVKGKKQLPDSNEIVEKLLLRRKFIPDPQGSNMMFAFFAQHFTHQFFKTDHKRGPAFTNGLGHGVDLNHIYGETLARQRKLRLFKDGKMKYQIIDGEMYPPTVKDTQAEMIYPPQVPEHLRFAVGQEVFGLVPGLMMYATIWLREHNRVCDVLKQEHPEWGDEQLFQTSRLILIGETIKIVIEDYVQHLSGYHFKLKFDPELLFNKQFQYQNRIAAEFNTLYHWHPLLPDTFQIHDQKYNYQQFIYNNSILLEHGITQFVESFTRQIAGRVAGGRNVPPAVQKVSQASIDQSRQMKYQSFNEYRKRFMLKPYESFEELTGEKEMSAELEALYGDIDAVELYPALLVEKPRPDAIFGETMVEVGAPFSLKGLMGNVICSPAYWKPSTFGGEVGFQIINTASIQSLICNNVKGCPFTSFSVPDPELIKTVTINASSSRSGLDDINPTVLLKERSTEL
Description: As well, platelets in whole blood contain a large amount of the COX-1 enzyme. Immediately following blood clotting, platelets are activated through a thrombin-mediated mechanism. This reaction results in the production of thromboxane B2 (TxB2) via activation of COX-1. Thus, the effect of test compounds on TxB2 levels following blood clotting can be examined and used as an index for COX-1 activity. Therefore, the degree of selectivity by the test compound can be determined by measuring the levels of PGE2 after LPS induction (COX-2) and […] following blood clotting (COX-1) in the same assay.
A. COX-2 (LPS-induced PGE2 production)
Fresh blood is collected in heparinized tubes by venipuncture from both male and female volunteers. The subjects have no apparent inflammatory conditions and have not taken any NSAIDs for at least 7 days prior to blood collection. Plasma is immediately obtained from a 2mL blood aliquot to use as blank (basal levels of PGE2). The remaining blood is incubated with LPS (100 μg/ml final concentration, Sigma Chem, #L-2630 from E. coli; diluted in 0.1% BSA (Phosphate buffered saline) for 5 minutes at room temperature. Five hundred μL aliquots of blood are incubated with either 2μL of vehicle (DMSO) or 2 μL of a test compound at final concentrations varying from 10nM to 30 μM for 24 hours at 37° C. At the end of the incubation, the blood is centrifuged at 12,000×g for 5 minutes to obtain plasma. A 100 μL aliquot of plasma is mixed with 400 μL of methanol for protein precipitation. The supernatant is obtained and is assayed for PGE2 using a radioimmunoassay kit (Amersham, RPA#530) after conversion of PGE2 to its methyl oximate derivative according to the manufacturer's procedure. […]

[2] = target: COX-1 (Homo sapiens, UniProt P23219); assay: Assay of COX-1 activity from U937 cell microsomes; type: biochemical; set-up: Assay of COX-1 Activity from U937 cell microsomes; endogenous in cells; host or cells: U937 cells, 100,000×g microsomal pellet; settings: PGE2, read-out: COX-1 (IC50 μM) U-937
COX-1, sequence (P23219 24-599): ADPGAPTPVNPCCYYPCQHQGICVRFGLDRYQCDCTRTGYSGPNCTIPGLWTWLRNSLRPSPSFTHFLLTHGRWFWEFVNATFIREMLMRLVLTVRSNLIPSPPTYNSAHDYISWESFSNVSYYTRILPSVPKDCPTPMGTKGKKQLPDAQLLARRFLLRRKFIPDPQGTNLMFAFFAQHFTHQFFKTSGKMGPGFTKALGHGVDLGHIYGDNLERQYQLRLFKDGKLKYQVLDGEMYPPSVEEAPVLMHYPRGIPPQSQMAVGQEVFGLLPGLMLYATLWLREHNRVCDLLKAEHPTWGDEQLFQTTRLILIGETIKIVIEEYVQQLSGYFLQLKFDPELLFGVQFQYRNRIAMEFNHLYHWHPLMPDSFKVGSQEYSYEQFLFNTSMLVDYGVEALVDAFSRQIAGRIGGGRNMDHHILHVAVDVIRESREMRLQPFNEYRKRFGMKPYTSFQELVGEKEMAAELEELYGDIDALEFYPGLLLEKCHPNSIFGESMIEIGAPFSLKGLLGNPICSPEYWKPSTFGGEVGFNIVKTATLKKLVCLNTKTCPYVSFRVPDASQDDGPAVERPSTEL
Protocol: Assay of COX-1 Activity from U937 cell microsomes
U 937 cells are pelleted by centrifugation at 500×g for 5 min and washed once with phosphate-buffered saline and repelleted. […] The cell suspension is sonicated 4 times for 10 sec and is centrifuged at 10,000×g for 10 min at 4° C. The supernatant is centrifuged at 100,000×g for 1 hr at 4° C. The 100,000×g microsomal pellet is resuspended in 0.1 M Tris-HCl, pH 7.4, 10 mM EDTA to approximately 7 mg protein/ml and stored at -80° C.
Microsomal preparations are thawed immediately prior to use, subjected to a brief sonication, and then diluted to a protein concentration of 125 μg/ml in 0.1 M Tris-HCl buffer, pH 7.4 containing 10 mM EDTA, 0.5 mM phenol, 1 mM reduced glutathione and 1 μM hematin. Assays are performed in duplicate in a final volume of 250 pl. Initially, 5 µl of DMSO vehicle or drug in DMSO are added to 20 μl of 0.1 M Tris-HCl buffer, pH 7.4 containing 10 mM EDTA in wells of a 96-deepwell polypropylene titre plate. 200 μl of the microsomal preparation are then added and pre-incubated for 15 min at room temperature before addition of 25 μl of […] in 0.1 M Tris-HCl and 10 mM EDTA, pH 7.4. Samples are incubated for 40 min at room temperature and the reaction is stopped by the addition of 25 pl of 1 N HCl. Samples are neutralized with 25 μl of 1 N NaOH prior to quantitation of PGE2 content by radioimmunoassay (Dupont-NEN or Amersham assay kits). Cyclooxygenase activity is defined as the difference between PGE2 levels in samples incubated in the presence of arachidonic acid and ethanol vehicle.
(§1) In the assay, inhibition is determined by measuring the amount of prostaglandin E2 (PGE2) synthesized in the presence of arachidonic acid, cyclooxygenase-I or cyclooxygenase-2 and a putative inhibitor.

[3] = target: T1, COX-2; assay: Whole cell assay for COX-2 using CHO transfected cell line (CHO [hCOX-2]), PGE2; type: cell-based; set-up: expressed in transfected cells; host or cells: CHO (Chinese hamster ovary), stably transfected with pCDNAIII vector; CHO [hCOX-2]; settings: CHO [hCOX-2] cells, 10 μM AA
Protocol: Chinese hamster ovary (CHO) cell lines which have been stably transfected with an eukaryotic expression vector pCDNAIII containing either the human COX-1 or COX-2 cDNA's are used for the assay. These cell lines are referred to as CHO [hCOX-1] and CHO [hCOX-2], respectively. […] Drugs to be tested are dissolved in DMSO to 66.7-fold the highest test drug concentration. […] Cells (0.3×10^6 cells in 200 p) are preincubated with 3 AIl of the test drug or DMSO vehicle for 15 min at 37° C. […] Cells are then challenged in the presence or absence of drug with the AA/HBSS solution to yield a final concentration of 0.5 μM AA in the CHOhCOX-1] assay and a final concentration of 10 μM AA in the CHO [hCOX-2] assay. […] The samples are centrifuged at 300×g at 4° C. for 10 min, and an aliquot of the clarified supernatant is appropriately diluted for the determination of PGE2 levels using an enzyme-liked immunoassay for PGE2 (Correlate PGE2 enzyme immunoassay kit, Assay Designs, Inc.). Cyclooxygenase activity in the absence of test compounds is determined as the difference in PGE2 levels of cells challenged with arachidonic acid versus the PGE2 levels in cells mock-challenged with ethanol vehicle. Inhibition of PGE2 synthesis by test compounds is calculated as a percentage of the activity in the presence of drug versus the activity in the positive control samples.
as §1

SMILES	IC50 [1] [µM]	IC50 [2] [µM]	IC50 [3] [µM]
CS(=O)(=O)c1ccc(-c2cnn(Cc3cccc(F)c3)c(=O)c2-c2ccccc2)cc1 [Example 15, 2-(3-Fluorobenzyl)-5-(4-methylsulfonyl)phenyl-4-phenyl-2H-pyridazin-3-one]	0.8	> 10	0.009
CS(=O)(=O)c1ccc(-c2cnn(Cc3ccccc3F)c(=O)c2-c2ccccc2)cc1 [Example 17, 2-(2-Fluorobenzyl)-5-(4-methylsulfonyl)phenyl-4-phenyl-2H-pyridazin-3-one]	–	> 10	–
CS(=O)(=O)c1ccc(-c2cnn(CCC(F)(F)F)c(=O)c2-c2ccc(F)cc2)cc1 [Example 19, 4-(4-Fluorophenyl)-5-(4-methylsulfonyl)phenyl-2-(3,3,3-trifluoropropyl)-2H-pyridazin-3-one]	–	> 10	–
CS(=O)(=O)c1ccc(-c2cnn(Cc3ccncc3)c(=O)c2-c2ccc(F)cc2)cc1 [Example 20, 4-(4-Fluorophenyl)-5-(4-methylsulfonyl)phenyl-2-(4-pyridylmethyl)-2H-pyridazin-3-one]	16.8	> 10	1.4
CS(=O)(=O)c1ccc(-c2cnn(-c3cccc(F)c3)c(=O)c2-c2ccccc2)cc1 [Example 26, 2-(3-Fluorophenyl)-5-(4-methylsulfonyl)phenyl-4-phenyl-2H-pyridazin-3-one]	5.5	> 10	0.065
CS(=O)(=O)c1ccc(-c2cnn(CCCC(F)(F)F)c(=O)c2-c2ccc(F)cc2)cc1 [Example 29, 4-(4-Fluorophenyl)-5-(4-methylsulfonyl)phenyl-2-(4,4,4-trifluorobutyl)-2H-pyridazin-3-one]	1.3	> 10	0.18
CC(C)Cn1ncc(-c2ccc(S(C)(=O)=O)cc2)c(-c2ccc(F)cc2)c1=O [Example 31, 4-(4-Fluorophenyl)-2-(2-methylpropyl)-5-(4-methylsulfonyl)phenyl-2H-pyridazin-3-one]	3.8	> 10	0.18
CS(=O)(=O)c1ccc(-c2cnn(CCc3ccccc3)c(=O)c2-c2ccc(F)cc2)cc1 [Example 33, 2-(2-Phenethyl)-4-(4-fluorophenyl)-5-(4-methylsulfonyl)phenyl-2H-pyridazin-3-one]	8.6	> 10	–
CS(=O)(=O)c1ccc(-c2cnn(Cc3ccccc3)c(=O)c2Oc2ccc(Br)cn2)cc1 [Example 34, 2-Benzyl-4-(5-bromo-2-pyridyloxy)-5-(4-methylsulfonyl)phenyl-2H-pyridazin-3-one]	0.86	> 10	–
Cc1ccc(-c2c(-c3ccc(S(C)(=O)=O)cc3)cnn(Cc3ccccc3)c2=O)cc1 [Example 35, 2-Benzyl-4-(4-methylphenyl)-5-(4-methylsulfonyl)phenyl-2H-pyridazin-3-one]	0.35	–	–

Further lines, results first:

IC50 [1] [µM]	IC50 [2] [µM]	IC50 [3] [µM]	SMILES
> 33	> 10	2	COC(=O)c1ccc(Cn2ncc(-c3ccc(S(C)(=O)=O)cc3)c(-c3ccccc3)c2=O)cc1 [Example 13, 2-(4-Carbomethoxybenzyl)-5-(4-methylsulfonyl)phenyl-4-phenyl-2H-pyridazin-3-one]
1.1	3 to 10	0.053	CS(=O)(=O)c1ccc(-c2cnn(Cc3ccc(F)cc3)c(=O)c2-c2ccc(F)cc2)cc1 [Example 16, 2-(4-Fluorobenzyl)-4-(4-fluorophenyl)-5-(4-methylsulfonyl)phenyl-2H-pyridazin-3-one]
–	~10	–	CS(=O)(=O)c1ccc(-c2cnn(C3CC3)c(=O)c2-c2ccc(F)cc2)cc1 [Example 18, 2-Cyclopropyl-5-(4-methylsulfonyl)phenyl-4-(4-fluorophenyl)-2H-pyridazin-3-one]
0.9	3 to 10	0.26	CS(=O)(=O)c1ccc(-c2cnn(Cc3ccccc3)c(=O)c2Oc2ccc(Cl)cn2)cc1 [Example 23, 2-Benzyl-4-(5-chloro-2-pyridyloxy)-5-(4-methylsulfonyl)phenyl-2H-pyridazin-3-one]
2.4	~10	0.16	CC(C)(C)Cn1ncc(-c2ccc(S(C)(=O)=O)cc2)c(-c2ccc(F)cc2)c1=O [Example 24, 2-(2,2-Dimethylpropyl)-4-(4-fluorophenyl)-5-(4-methylsulfonyl)phenyl-2H-pyridazin-3-one]
1.4	~1	0.49	CC(c1ccccc1)n1ncc(-c2ccc(S(C)(=O)=O)cc2)c(-c2ccc(F)cc2)c1=O (stereo not shown) [Example 25, 4-(4-Fluorophenyl)-5-(4-methylsulfonyl)phenyl-2-(1-phenyl-ethyl)-2H-pyridazin-3-one]
–	~1	–	CS(=O)(=O)c1ccc(-c2cnn(Cc3cccs3)c(=O)c2-c2ccc(F)cc2)cc1 [Example 27, 4-(4-Fluorophenyl)-5-(4-methylsulfonyl)phenyl-2-(thiophen-2-yl-methyl)-2H-pyridazin-3-one]
–	0.3 to 1	–	CS(=O)(=O)c1ccc(-c2cnn(CC3CCCCC3)c(=O)c2-c2ccc(F)cc2)cc1 [Example 36, 2-Cyclohexylmethyl-4-(4-fluorophenyl)-5-(4-methylsulfonyl)phenyl-2H-pyridazin-3-one]
